Experimental data reported in patent US8288315B2, “Fungicide mixtures” (BASF SE, priority 2007, dated 2012).

Experiments:
Botrytis cinerea = assay: Activity against gray mold on bell pepper leaves caused by Botrytis cinerea, 1 day protective application; format: in vivo; conditions: bell pepper seedlings, sprayed 1 day before inoculation, rated after 5 days, efficacy as % of untreated control
Description: (§1) The mixture was then made up with water to 100 ml.
The next day, the treated plants were inoculated with a spore suspension of Botrytis cinerea in a 2% strength biomalt solution. The test plants were then placed in a dark climatized chamber at 22 to 24° C. and high atmospheric humidity. After 5 days, the extent of the fungal infection on the leaves could be determined visually in %.
(§2) The visually determined percentages of infected leaf areas were converted into efficacies as % of the untreated control:
(§3) The efficacy (E) is calculated as follows using Abbot's formula: E=(1−α/β)·100 • α corresponds to the fungicidal infection of the treated plants in % and • β corresponds to the fungicidal infection of the untreated (control) plants in %
(§4) An efficacy of 0 means that the infection level of the treated plants corresponds to that of the untreated control plants; an efficacy of 100 means that the treated plants are not infected.

Puccinia recondita = assay: Protective activity against Puccinia recondita on wheat (brown rust of wheat); format: in vivo; conditions: wheat seedlings, sprayed 1 day before inoculation, rated after a further 7 days, efficacy as % of untreated control
Description: as §1
The next day, the treated plants were inoculated with a spore suspension of brown rust of wheat (Puccinia recondita). The plants were then placed in a chamber with high atmospheric humidity (90 to 95%) at 20 to 22° C. for 24 hours. During this time, the spores germinated and the germ tubes penetrated into the leaf tissue. The following day, the test plants were returned to the greenhouse and cultivated at temperatures between 20 and 22° C. and at 65 to 70% relative atmospheric humidity for a further 7 days. The extent of the rust fungus development on the leaves was then determined visually.
as §2, §3, §4

CC1(C)CCC(Cc2ccc(Cl)cc2)C1(O)Cn1cncn1 (stereo not drawn) [Metconazole, (1RS,5RS;1RS,5SR)-5-(4-chlorobenzyl)-2,2-dimethyl-1-(1H-1,2,4-triazol-1-ylmethyl)cyclopentanol]
Observed effect (%) (Botrytis cinerea; 0.016 ppm): 0% | Observed effect (%) (Puccinia recondita; 0.25 ppm): 13%

CCCN(CCOc1c(Cl)cc(Cl)cc1Cl)C(=O)n1ccnc1 [Prochloraz, N-propyl-N-[2-(2,4,6-trichlorophenoxy)ethyl]imidazole-1-carboxamide]
Observed effect (%) (Botrytis cinerea; 0.25 ppm): 0% | Observed effect (%) (Puccinia recondita; 4 ppm): 0%
